No end group written: not given here.

This assay has as its target T1, mTAS1R2-WT/mTAS1R3-WT (Mus musculus, UniProt Q925D8+Q925I4).
T1 construct: expressed in transfected cells; host or cells: HEK293T-Gα16gust44
T1 sequence (Q925I4 20-843): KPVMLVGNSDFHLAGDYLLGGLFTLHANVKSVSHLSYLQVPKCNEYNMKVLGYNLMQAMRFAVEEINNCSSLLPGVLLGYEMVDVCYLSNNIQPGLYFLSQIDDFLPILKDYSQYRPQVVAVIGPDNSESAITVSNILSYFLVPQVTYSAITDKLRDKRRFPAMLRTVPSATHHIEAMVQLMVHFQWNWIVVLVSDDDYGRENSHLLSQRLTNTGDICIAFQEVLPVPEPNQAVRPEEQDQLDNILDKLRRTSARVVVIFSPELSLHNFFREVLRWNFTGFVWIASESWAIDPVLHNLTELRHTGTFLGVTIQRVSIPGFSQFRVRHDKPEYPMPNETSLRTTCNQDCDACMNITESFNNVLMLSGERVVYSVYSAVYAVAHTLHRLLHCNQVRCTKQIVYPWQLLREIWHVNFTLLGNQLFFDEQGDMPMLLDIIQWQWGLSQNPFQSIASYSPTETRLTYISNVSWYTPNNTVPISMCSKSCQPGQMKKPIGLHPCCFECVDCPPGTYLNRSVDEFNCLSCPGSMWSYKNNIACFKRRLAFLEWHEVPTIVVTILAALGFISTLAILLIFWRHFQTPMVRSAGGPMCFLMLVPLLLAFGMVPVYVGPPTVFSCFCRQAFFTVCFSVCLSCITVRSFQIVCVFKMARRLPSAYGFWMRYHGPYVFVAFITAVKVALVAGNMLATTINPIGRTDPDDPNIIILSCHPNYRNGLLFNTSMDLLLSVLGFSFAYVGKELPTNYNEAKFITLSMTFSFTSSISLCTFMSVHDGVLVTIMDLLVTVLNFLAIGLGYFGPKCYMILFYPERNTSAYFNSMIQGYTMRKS
T1 sequence (Q925D8 21-858): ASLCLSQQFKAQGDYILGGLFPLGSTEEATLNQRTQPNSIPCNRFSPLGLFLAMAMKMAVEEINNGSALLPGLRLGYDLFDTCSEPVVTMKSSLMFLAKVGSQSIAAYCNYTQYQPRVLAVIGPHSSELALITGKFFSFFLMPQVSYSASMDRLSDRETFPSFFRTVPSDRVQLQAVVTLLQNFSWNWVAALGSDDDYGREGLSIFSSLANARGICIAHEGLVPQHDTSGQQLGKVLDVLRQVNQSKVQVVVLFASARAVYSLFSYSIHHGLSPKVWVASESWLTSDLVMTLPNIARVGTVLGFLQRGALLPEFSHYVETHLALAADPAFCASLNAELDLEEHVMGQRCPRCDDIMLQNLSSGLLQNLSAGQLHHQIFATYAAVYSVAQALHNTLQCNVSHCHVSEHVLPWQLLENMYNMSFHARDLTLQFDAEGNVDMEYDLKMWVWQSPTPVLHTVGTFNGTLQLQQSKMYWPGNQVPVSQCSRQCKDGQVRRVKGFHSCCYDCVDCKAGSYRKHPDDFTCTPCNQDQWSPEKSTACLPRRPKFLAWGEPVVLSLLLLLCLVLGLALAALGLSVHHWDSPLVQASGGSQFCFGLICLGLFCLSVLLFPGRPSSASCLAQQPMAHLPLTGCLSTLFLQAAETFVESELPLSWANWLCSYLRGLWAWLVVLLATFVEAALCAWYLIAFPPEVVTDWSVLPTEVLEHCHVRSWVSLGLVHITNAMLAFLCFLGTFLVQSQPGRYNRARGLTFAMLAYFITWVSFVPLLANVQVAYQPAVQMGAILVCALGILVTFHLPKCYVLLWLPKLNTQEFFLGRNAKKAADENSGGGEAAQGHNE
As to the kind of experiment: Calcium mobilisation assay, HEK293T-Gα16gust44 cells, mouse sweet taste receptor WT. Format: cell-based. The conditions noted are these: for activation of the mouse sweet taste receptor: result in words; for EC50 / Max ΔF/F0: mTAS1R2-WT + mTAS1R3-WT, "-": no activation; for Max ΔF/F0: maximal signal amplitude. The method, then: The HEK293T cells were kindly provided by Jay P. Slack (Givaudan Flavors Corporation; Cincinnati, OH, USA). HEK293T cells stably transfected with Gα16gust44 [43, 67] were seeded in poly-D-lysine-coated clear-bottom black 96-well plates (0.35 × 10^5 cells/well) in high-glucose DMEM supplemented with 2 mM GlutaMAX, 10% dialysed foetal bovine serum with penicillin/streptomycin and G418 (400 μg/mL) at 37 °C and 6.3% CO2 in a humidified atmosphere as previously reported. […] As a negative control, HEK293T cells were mock-transfected with the empty expression vector. After a further 24 h of incubation, the HEK293T cells were washed with C1 buffer (130 mM NaCl, 5 mM KCl, 10 mM HEPES pH 7.4 and 2 mM CaCl2). The 96-well plates containing the cells were then stimulated with sweet-tasting compounds. […] Different concentration ranges were tested depending on the sweet compound injected. The Ca^2+ changes were expressed as fractional changes in fluorescent light intensity: ΔF/F = (F − F0)/F0, where F was the fluorescent light intensity at each point, and F0 was the value of emitted fluorescent light prior to stimulus application. To calculate dose–response relationships, the changes in fluorescence upon stimulus application were averaged, mock-subtracted and baseline-corrected. The dose–response data obtained were adjusted using a 4-parameter logistic equation. The half-maximal effective concentrations (EC50 values) and maximal signal amplitudes were calculated using SigmaPlot software (version 15.0) (Systat Software; San Jose, CA, USA).
HEK293T-Gα16gust44 cells were transiently cotransfected with pcDNA6-MAX-mTAS1R2-FLAG, pcDNA4-MAX-mTAS1R3-WT-FLAG or pcDNA4-MAX-mTAS1R3-I60T-FLAG, and pCMV-GCaMP5G as previously described in detail. After 24 h, the cells were washed with C1 buffer and stimulated with a logarithmically increasing range of sweetener concentrations. Calcium responses during automated application were monitored using a FlexStation®3 Multi-Mode microplate reader. The dose–response curves, EC50 values and maximal signal amplitudes were calculated as previously described.
For in vitro calcium mobilisation assay performed on hTAS1R2-SNPs, hTAS1R3-SNPs and mTAS1R3-I60T, 6 to 7 concentrations were tested for each sweet compound, plus buffer alone. All concentration–receptor combinations were measured in duplicate, and each experiment was repeated at least 4 times (8 wells/concentration). Results were expressed for each concentration as ΔF/F mean ± SEM and represented as dose–response curves.

For the compound `C=C(C)[C@@H]1CC=C(/C=N/O)CC1` [Perillartine, perillartine], the “activation of the mouse sweet taste receptor” value (from here on “activation”) was “not activated”.

Regarding `O=S(=O)(O)NC1CCCCC1` [Cyclamate, cyclamate], the “activation” value was “not activated”.

As for `C=C1C[C@@]23CC[C@H]4[C@@](C)(CCC[C@@]4(C)C(=O)O[C@@H]4O[C@H](CO)[C@@H](O)[C@H](O[C@@H]5O[C@H](CO)[C@@H](O)[C@H](O)[C@H]5O)[C@H]4O[C@@H]4O[C@H](CO)[C@@H](O)[C@H](O)[C@H]4O)[C@@H]2CC[C@]1(O[C@@H]1O[C@H](CO)[C@@H](O)[C@H](O[C@@H]2O[C@H](CO)[C@@H](O)[C@H](O)[C@H]2O)[C@H]1O[C@@H]1O[C@H](CO)[C@@H](O)[C@H](O)[C@H]1O)C3` [Rebaudioside M, rebaudioside M], the concentration giving a half-maximal response (EC50) came to 44 ± 4 µM and the “Max ΔF/F0” value is given as 1.41 ± 0.05.

On to `OC[C@H]1O[C@H](O[C@]2(CCl)O[C@H](CCl)[C@@H](O)[C@@H]2O)[C@H](O)[C@@H](O)[C@H]1Cl` [Sucralose], for which the half-maximal effective concentration (EC50) stood at 778 ± 22 µM and the “Max ΔF/F0” value worked out at 2.03 ± 0.02.

For `CC1=CC(=O)NS(=O)(=O)O1` [Acesulfame K, acesulfame K], the EC50 was 439 ± 10 µM and the “Max ΔF/F0” value was found to be 1.63 ± 0.02.

Turning to “brazzein (QDKCKKVYENYPVSKCQLANQCNYDCKLDKHARSGECFYDEKRNLQCICDYCEY; ends and bridges not checked; cysteine pairing not given here; UniProt P56552 1-54, looked up) [sweet-tasting protein obtained by recombinant production using the yeast Pichia pastoris]”, the “activation” value was “not activated”.

As to thaumatin, the “activation” value is given as “not activated”.

`COC(=O)[C@H](Cc1ccccc1)NC(=O)[C@H](CC(=O)O)NCCC(C)(C)C` [Neotame]: the “activation” value was “not activated”.

As to `C[C@H](CC[C@@H](O[C@@H]1O[C@H](CO[C@@H]2O[C@H](CO)[C@@H](O)[C@H](O)[C@H]2O)[C@@H](O)[C@H](O)[C@H]1O[C@@H]1O[C@H](CO)[C@@H](O)[C@H](O)[C@H]1O)C(C)(C)O)[C@H]1CC[C@@]2(C)[C@@H]3CC=C4[C@@H](CC[C@H](O[C@@H]5O[C@H](CO[C@@H]6O[C@H](CO)[C@@H](O)[C@H](O)[C@H]6O)[C@@H](O)[C@H](O)[C@H]5O)C4(C)C)[C@]3(C)[C@H](O)C[C@]12C` [Mogroside V, mogroside V], the EC50 is 133 ± 6 µM and the “Max ΔF/F0” value came out at 0.84 ± 0.02.

As for `COc1ccc(CCC(=O)c2c(O)cc(O[C@@H]3O[C@H](CO)[C@@H](O)[C@H](O)[C@H]3O[C@@H]3O[C@@H](C)[C@H](O)[C@@H](O)[C@H]3O)cc2O)cc1O` [NHDC, neohesperidin dihydrochalcone], the “activation” value is reported as “not activated”.

These data come from paper PMC11945486, “TAS1R2/TAS1R3 Single-Nucleotide Polymorphisms Affect Sweet Taste Receptor Activation by Sweeteners: The SWEET Project” (Nutrients, 2025).
